# Where two headings read alike, the source gives them in different places.
# Columns and labels:
# SW-620 (ATCC: CCL-227) = test: Test of cancer cell growth inhibition (SRB), SW-620; details: read-out: IC50 SW-620
# SK-Br3 (ATCC: HTB-30) = test: Test of cancer cell growth inhibition (SRB), SK-Br3; details: read-out: IC50 SK-Br-3
# A431 (ATCC: CRL-1555) = test: Test of cancer cell growth inhibition (SRB), A431; details: read-out: IC50 A431
# [1] = SW-620 not having overexpressed EGFR and Erb-B2, 72 hours, SRB
# [2] = Erb-B2 overexpressed SK-Br3, 72 hours, SRB
# [3] = EGFR overexpressed A431, 72 hours, SRB
Compound,"IC50 (SW-620 (ATCC: CCL-227); Homo sapiens, SW-620, 72 h) [nM]","IC50 (SK-Br3 (ATCC: HTB-30); Homo sapiens, SK-BR-3, 72 h) [nM]","IC50 (A431 (ATCC: CRL-1555); Homo sapiens, A-431, 72 h) [nM]",IC50 (SW-620 (ATCC: CCL-227); [1]) [nM],IC50 (SK-Br3 (ATCC: HTB-30); [2]) [nM],IC50 (A431 (ATCC: CRL-1555); [3]) [nM]
"C=CC(=O)N[C@@H](CCSC)C(=O)Nc1ccc2ncnc(Nc3ccc(OCc4cccc(F)c4)c(Cl)c3)c2c1 [Example 9, (2S)-2-acryloylamino-N-{4-[3-chloro-4-(3-fluoro-benzyloxy)-phenylamino]-quinazolin-6-yl}-4-methanesulfanyl-butyramide]",–,–,–,> 10000,7,60
"C=CC(=O)N1CCCC1C(=O)Nc1ccc2ncnc(Nc3ccc(OCc4cccc(F)c4)c(Cl)c3)c2c1 (stereo not shown) [Example 18, 1-acryloyl-pyrrolidine-2-carboxylic acid {4-[3-chloro-4-(3-fluoro-benzyloxy)-phenylamino]-quinazolin-6-yl}-amide]",> 10000,290,157,–,–,–
"CS(=O)(=O)CC(=O)NCCC(=O)Nc1ccc2ncnc(Nc3ccc(OCc4cccc(F)c4)c(Cl)c3)c2c1 [Example 21, N-{4-[3-chloro-4-(3-fluoro-benzyloxy)-phenylamino]-quinazolin-6-yl}-3-(2-methanesulfonyl-acetylamino)-propionamide]",> 10000,16,455,–,–,–
"CC=CC=CC(=O)NCCC(=O)Nc1ccc2ncnc(Nc3ccc(OCc4cccc(F)c4)c(Cl)c3)c2c1 [Example 24, hexa-2,4-dienonylic acid (2-{4-[3-chloro-4-(3-fluoro-benzyloxy)-phenylamino]-quinazolin-6-ylcarbamoyl}-ethyl)-amide]",–,–,–,> 10000,105,232
"O=C(CCNC(=O)C1=CCCC1)Nc1ccc2ncnc(Nc3ccc(OCc4cccc(F)c4)c(Cl)c3)c2c1 [Example 25, cyclopent-1-en carboxylic acid (2-{4-[3-chloro-4-(3-fluoro-benzyloxy)-phenylamino]-quinazolin-6-ylcarbamoyl}-ethyl)-amide]",> 10000,133,138,–,–,–
"COCC(=O)NCC(OC(C)=O)C(=O)Nc1ccc2ncnc(Nc3ccc(OCc4cccc(F)c4)c(Cl)c3)c2c1 (stereo not shown) [Example 39-2, acetic acid 1-{4-[3-chloro-4-(3-fluoro-benzyloxy)-phenylamino]-quinazolin-6-ylcarbamoyl}-2-(2-methoxy-acetylamino)-ethylester]",> 10000,45,482,–,–,–
"COCC(=O)NCC(O)C(=O)Nc1ccc2ncnc(Nc3ccc(OCc4cccc(F)c4)c(Cl)c3)c2c1 (stereo not shown) [Example 40, N-{4-[3-chloro-4-(3-fluoro-benzyloxy)-phenylamino]-quinazolin-6-yl}-2-hydroxyl-3-(2-methoxy-acetylamino)-propionamide]",> 10000,84,327,–,–,–
"COCC(=O)NCC(C)C(=O)Nc1ccc2ncnc(Nc3ccc(OCc4cccc(F)c4)c(Cl)c3)c2c1 (stereo not shown) [Example 42-2, N-{4-[3-chloro-4-(3-fluoro-benzyloxy)-phenylamino]-quinazolin-6-yl}-3-(2-methoxy-acetylamino)-2-methyl-propionamide]",> 10000,102,340,–,–,–
"C=CC(=O)NCC(C)C(=O)Nc1ccc2ncnc(Nc3ccc(OCc4cccc(F)c4)c(Cl)c3)c2c1 (stereo not shown) [Example 44, N-(2-{4-[3-chloro-4-(3-fluoro-benzyloxy)-phenylamino]-quinazolin-6-ylcarbamoyl}-propyl)-acrylamide]",> 10000,6,43,–,–,–
"C=CC(=O)NCCC(=O)Nc1ccc2ncnc(Nc3ccc(F)c(Cl)c3)c2c1 [Example 54, N-{2-[4-(3-chloro-4-fluoro-phenylamino)-quinazolin-6-ylcarbamoyl]-ethyl}-acrylamide]",> 10000,46,321,–,–,–
"C=CC(=O)N[C@@H](C)C(=O)Nc1cc2c(Nc3ccc(OCc4cccc(F)c4)c(Cl)c3)ncnc2cc1OCCOC [Example 214, (1S)—N-(1-{4-[3-chloro-4-(3-fluoro-benzyloxy)-phenylamino]-7-(2-methoxyethoxy)-quinazolin-6-ylcarbamoyl}-ethyl)-acrylamide]",–,6,22,–,–,–
"C=CC(=O)N1CCC[C@H]1C(=O)Nc1cc2c(Nc3ccc(OCc4cccc(F)c4)c(Cl)c3)ncnc2cc1OCCOC [Example 215, (2S)-1-acryloyl-pyrrolidine-2-carboxylic acid {4-[3-chloro-4-(3-fluoro-benzyloxy)-phenylamino]-7-(2-methoxyethoxy)-quinazolin-6-yl}-amide]",–,11,59,–,–,–
"C=CC(=O)N[C@H](C(=O)Nc1ccc2ncnc(Nc3ccc(OCc4ccccn4)c(Cl)c3)c2c1)C(C)C [Example 224, (2S)-2-acryloylamino-N-{4-[3-chloro-4-(pyridin-2-ylmethoxy)-phenylamino]-quinazolin-6-yl}-3-methyl-butyramide]",–,12,49,–,–,–
(2S)-2-acryloylamino-N-{4-[3-chloro-4-(3-fluoro-benzyloxy)-phenylamino]-7-(2-methoxyethoxy)-quinazolin-6-yl}-4-methylsulfanyl-butyramide [Example 222],–,–,–,–,9,25

# Further lines, results first:
"IC50 (SW-620 (ATCC: CCL-227); Homo sapiens, SW-620, 72 h) [nM]","IC50 (SK-Br3 (ATCC: HTB-30); Homo sapiens, SK-BR-3, 72 h) [nM]","IC50 (A431 (ATCC: CRL-1555); Homo sapiens, A-431, 72 h) [nM]",IC50 (SW-620 (ATCC: CCL-227); [1]) [nM],IC50 (SK-Br3 (ATCC: HTB-30); [2]) [nM],IC50 (A431 (ATCC: CRL-1555); [3]) [nM],Compound
> 10000,245,206,–,–,–,"COCC(=O)NCC(=O)Nc1ccc2ncnc(Nc3ccc(OCc4cccc(F)c4)c(Cl)c3)c2c1 [Example 2-4, N-({4-[3-chloro-4-(3-fluoro-benzyloxy)-phenylamino]-quinazolin-6-ylcarbamoyl}-methyl)-2-methoxy-acetamide]"
> 10000,10,179,–,–,–,"C=CC(=O)NCC(=O)Nc1ccc2ncnc(Nc3ccc(OCc4cccc(F)c4)c(Cl)c3)c2c1 [Example 4, N-({4-[3-chloro-4-(3-fluoro-benzyloxy)-phenylamino]-quinazolin-6-ylcarbamoyl}-methyl)-acrylamide]"
> 10000,106,315,–,–,–,"COCC(=O)N[C@@H](Cc1ccccc1)C(=O)Nc1ccc2ncnc(Nc3ccc(OCc4cccc(F)c4)c(Cl)c3)c2c1 [Example 5-3, (2S)—N-{4-[3-chloro-4-(3-fluoro-benzyloxy)-phenylamino]-quinazolin-6-yl}-2-(2-methoxy-acetylamino)-3-phenyl-propionamide]"
–,–,–,> 10000,10,85,"CC#CC(=O)NCCC(=O)Nc1ccc2ncnc(Nc3ccc(OCc4cccc(F)c4)c(Cl)c3)c2c1 [Example 27, but-2-ynoylic acid(2-{4-[3-chloro-4-(3-fluoro-benzyloxy)-phenylamino]-quinazolin-6-ylcarbamoyl}-ethyl)-amide]"
–,–,–,> 10000,65,197,"CC=CC(=O)NCCC(=O)Nc1ccc2ncnc(Nc3ccc(OCc4cccc(F)c4)c(Cl)c3)c2c1 [Example 28, but-2-enonylic acid (2-{4-[3-chloro-4-(3-fluoro-benzyloxy)-phenylamino]-quinazolin-6-ylcarbamoyl}-ethyl)-amide]"
–,–,–,> 10000,54,310,"CC(C)=CC(=O)NCCC(=O)Nc1ccc2ncnc(Nc3ccc(OCc4cccc(F)c4)c(Cl)c3)c2c1 [Example 29, 3-methyl-but-2-enonylic acid (2-{4-[3-chloro-4-(3-fluoro-benzyloxy)-phenylamino]-quinazolin-6-ylcarbamoyl}-ethyl)-amide]"
> 10000,38,119,–,–,–,"C=C(C)C(=O)NCCC(=O)Nc1ccc2ncnc(Nc3ccc(OCc4cccc(F)c4)c(Cl)c3)c2c1 [Example 30, N-(2-{4-[3-chloro-4-(3-fluoro-benzyloxy)-phenylamino]-quinazolin-6-ylcarbamoyl}-ethyl)-2-methyl-acrylamide]"
–,–,–,> 10000,98,168,"O=C(CCl)NCCC(=O)Nc1ccc2ncnc(Nc3ccc(OCc4cccc(F)c4)c(Cl)c3)c2c1 [Example 61, 3-(2-chloro-acetylamide)-N-{4-[3-chloro-4-(3-fluoro-benzyloxy)-phenylamino]-quinazolin-6-yl}-propionamide]"
–,–,–,> 10000,86,208,"CC(C)(C)OC(=O)NCCC(=O)Nc1ccc2ncnc(Nc3ccc4c(cnn4Cc4ccccc4)c3)c2c1 [Example 77, {2-[4-(1-benzyl-1-indazol-5-ylamino)-quinazolin-6-ylcarbamoyl]-ethyl}-carbamic acid t-butylester]"
–,21,22,–,–,–,"C=CC(=O)N[C@@H](C)C(=O)Nc1cc2c(Nc3ccc(OCc4ccccn4)c(Cl)c3)ncnc2cc1OCCCOC [Example 220, (1S)—N-(1-{4-[3-chloro-4-(pyridin-2-ylmethoxy)-phenylamino]-7-(3-methoxypropoxy)-quinazolin-6-ylcarbamoyl}-ethyl)-acrylamide]"
–,21,42,–,–,–,"C=CC(=O)N[C@@H](CC(C)C)C(=O)Nc1ccc2ncnc(Nc3ccc(OCc4ccccn4)c(Cl)c3)c2c1 [Example 225, (2S)-2-acryloylamino-4-methyl-pentanoic acid {4-[3-chloro-4-(pyridin-2-ylmethoxy)-phenylamino]-quinazolin-6-yl}-amide]"
–,–,–,–,32,54,(2S)-2-acryloylamino-N-{4-[3-chloro-4-(3-fluoro-benzyloxy)-phenylamino]-7-methoxy-quinazolin-6-yl}-4-methanesulfinyl-butyramide [Example 223]
–,–,–,–,23,28,(2S)-2-acryloylamino-N-{4-[3-chloro-4-(3-fluoro-benzyloxy)-phenylamino]-7-methoxy-quinazolin-6-yl}-4-methylsulfanyl-butyramide [Example 221]

# From patent US8003658B2, “Quinazoline derivatives for inhibiting cancer cell growth and method for the preparation thereof” (Hanmi Holdings Co., Ltd., priority 2004, dated 2011)
